{
  "source": "patent US7553826B2",
  "about": "“Cytarabine monophosphate prodrugs” (Metabasis Therapeutics, Inc., priority 2002, dated 2009)",
  "key": {"human liver microsomes": {"system": "human liver microsomes", "assay": "Enzyme kinetics of prodrug activation to araCMP in human liver microsomes"}, "[1]": {"assay": "Rat acute toxicity, 24 hr continuous i.v. infusion", "format": "in vivo", "conditions": "rats, 2000 mg/kg/24 hrs continuous i.v. infusion", "procedure": "Male and female Simonsen rats were instrumented for continuous infusion as described in Example C. On the day of treatment, the rats were hooked up to the constant infusion tether and given free access to food and water. Three male and three female rats were treated Compound A at a dose of 2000 mg/kg/24 hrs using a flow rate of 2.08 ml/kg/hr. Compound A was dissolved at 42.5 mg/ml in water and the pH adjusted to 4 with 1M HCl. The osmolarity was adjusted to ˜300 mOsm using 5M NaCl. As a control, 2 male rats were infused with pH 4 saline for the same period of time. The appearance and disposition of the rats was monitored regularly and notes about their behavior recorded every 1-3 hrs during the working day.\nThe animals were anesthetized in a chamber supplied via a Fluotec 3 vaporizer with 5% isoflurane (Abbot Laboratories, NDC 0074-3292-02) in 100% oxygen at a flow rate of 1.5 to 2 liters per minute. […] The blood from each animal was divided between K2-EDTA-containing microtainer tubes (Becton Dickinson, 36/5974) and microtainer tubes with gel separators for serum (Becton Dickinson, 36/5956) and lithium heparin for plasma collection (Becton Dickinson, 36/5958). If possible, urine was removed from the bladder using a 23-gauge needle attached to a 3 cc syringe. Tissue samples were collected in the following order: liver, kidneys, small intestine, bladder and bone marrow. The small intestine was divided into three equal portions to represent samples from the duodenum, jejunum and ileum; fecal matter was manually removed by gentle sliding pressure using a blunt forceps. From each tissue, a portion was placed in 10% buffered formalin for histology.\nFor cell counting, […] of EDTA-treated blood or PBS-suspended bone marrow flush was mixed with 450 μL or 950 μL, respectively, nuclear staining solution containing 0.19 mg/mL crystal violet (Sigma # C-1658, lot 112H3660) in 1 M acetic acid, and incubated at room temperature for at least 5 min. After brief vortexing, a 10 μl aliquot of the mixture was placed in a hemocytometer and cells were counted using a Nikon Optiphot-2 microscope. The blood samples were counted under a 40× objective to evaluate the number of mononuclear cells (lymphocytes and monocytes) and polymorphonuclear cells (PMN, including granulocytes of the neutrophil, eosinophil and basophil type). Nucleated bone marrow cells were counted under a 10× objective.\nEDTA-treated blood samples were submitted to LabCorp (San Diego, Calif.) for hematology analysis including erythrocyte and platelet numbers, hemoglobin, and hematocrit. Serum chemistry analysis was also performed by LabCorp. […]"}},
  "data": [
    {"smiles": "Nc1ccn([C@@H]2O[C@H](CO[P@@]3(=O)OCC[C@@H](c4ccncc4)O3)[C@@H](O)[C@@H]2O)c(=O)n1", "note": "[Compound A, 2(1H)-Pyrimidinone, 4-amino-1-[5-O-[(2R,4S)-2-oxido-4-(4-pyridinyl)-1,3,2-dioxaphosphorinan-2-yl]-β-D-arabinofuranosyl]]", "values": [
      {"measurement": "Vmax", "setting": "human liver microsomes; activation to araCMP, 2 mg/mL human liver microsomes lot RQX, 1 mM NADPH, pH 7.4, 37° C, 5 min", "result": "0.11 ± 0.02", "unit": "nmol/min/mg"},
      {"measurement": "Km", "setting": "human liver microsomes; activation to araCMP, human liver microsomes lot RQX", "result": "1.08 ± 0.27", "unit": "mM"},
      {"measurement": "intrinsic clearance / activation rate relative to Compound B", "setting": "human liver microsomes; human liver microsomes lot RQX", "result": 2.6, "unit": "fold"},
      {"measurement": "serum chemistry and hematology parameters", "setting": "[1]", "result": "generally within normal ranges"},
      {"measurement": "serum triglycerides levels", "setting": "[1]", "result": "outside the normal range"},
      {"measurement": "overt toxicity", "setting": "[1]; 24 hr treatment", "result": "no overt toxicity was noted"},
      {"measurement": "tolerability", "setting": "[1]; 24 hrs", "result": "well tolerated"}
    ]}
  ]
}
